# In patent US6583125B2 (priority 1992, dated 2003):
# Where two headings read alike, the source gives them in different places. *1 amine or outer side, *2 acyl side, *3 side chain or, on linkers, in order; H or OH if unused. Where a SMILES comes first, the peptide text is derived from it. Bridges are numbered along the chain shown (N, C = ends). Roman numbers before positions name the chains, in order. [ ]: non-standard residue; d: D form. Actinocin(9to1) = Cc1c2oc3c(C)ccc(C(=O)[*:1])c3nc-2c(C(=O)[*:2])c(N)c1=O; NMeV = CN[C@H](C(=O)O)C(C)C; Sar = CNCC(=O)O
# Key:
# [1] = human, in vivo; cited from earlier work
# [2] = rat, in vivo
# rats [3] = settings: rat, in vivo
# rats [4] = settings: rat, in vivo; remark: listed apart in the source
# [5] = rat, in vivo; remark: listed apart in the source
# rats [6] = settings: rat, in vivo; remark: listed apart in the source
# [7] = male, Charles Rivers CD (Sprague-Dawley)
molecule,measurement,setting,value
CO[C@@H]1[C@H](O)C[C@@H](O[C@@H]2C[C@H](Oc3cc4cc5c(c(O)c4c(O)c3C)C(=O)[C@@H](O[C@H]3C[C@@H](O[C@H]4C[C@@H](O[C@H]6C[C@](C)(O)[C@@H](OC(C)=O)[C@H](C)O6)[C@H](O)[C@@H](C)O4)[C@H](O)[C@@H](C)O3)[C@H]([C@H](OC)C(=O)[C@@H](O)[C@@H](C)O)C5)O[C@H](C)[C@@H]2OC(C)=O)O[C@@H]1C [Chromomycin A3],Acute Local tissue Effects (infiltration),[1],Sever tissue sloughing
same,Frequency of Phlebitis,[1],Frequent
"COc1cccc2c1C(=O)c1c(O)c3c(c(O)c1C2=O)C[C@@](O)(C(=O)CO)C[C@@H]3O[C@H]1C[C@H](N)[C@H](O)[C@H](C)O1 [Doxorubicin, 10-[(3-amino-2,3,6-tri-deoxy-α-L-lyxo-hexopyransoyl)oxy]-7,8,9,10-tetrahydro-6,8,-11-trihydroxy-8-(hydroxyacetyl)-1-methyoxy-5,12-naphthacenedione]",effect on body weight,[2],no adverse effect on body weight
same,rats with lesions,rats [3]; [7],all 8
same,rats with necrotic lesions of the skin,rats [3]; [7],all 8
same,Frequency of Phlebitis,[1],Frequent
CC(=O)[C@]1(O)Cc2c(O)c3c(c(O)c2[C@@H](O[C@H]2C[C@H](N)[C@H](O)[C@H](C)O2)C1)C(=O)c1ccccc1C3=O [Idarubicin],Frequency of Phlebitis,[1],Frequent
"CC(=O)O[C@H]1C(=O)[C@@]2(C)[C@H]([C@H](OC(=O)c3ccccc3)[C@]3(O)C[C@H](OC(=O)[C@H](O)[C@@H](NC(=O)c4ccccc4)c4ccccc4)C(C)=C1C3(C)C)[C@]1(OC(C)=O)CO[C@@H]1C[C@@H]2O [Taxol CV, Taxol]",rats with lesions,"rats [4]; male, Charles Rivers CD",all 8
COc1cc([C@@H]2c3cc4c(cc3[C@@H](O[C@@H]3O[C@@H]5CO[C@@H](c6cccs6)O[C@H]5[C@H](O)[C@H]3O)[C@H]3COC(=O)[C@H]23)OCO4)cc(OC)c1O [Tenoposide],Frequency of Phlebitis,[1],Frequent
"CC[C@]1(O)C[C@H]2CN(CCc3c([nH]c4ccccc34)[C@@](C(=O)OC)(c3cc4c(cc3OC)N(C=O)[C@H]3[C@@](O)(C(=O)OC)[C@H](OC(C)=O)[C@]5(CC)C=CCN6CC[C@]43[C@@H]65)C2)C1 [Vincristine, 22-Oxoyincaleukoblastine]",Frequency of Phlebitis,[1],Infrequent
CN(C)/N=N/c1[nH]cnc1C(N)=O [dacarbazine],Acute Local tissue Effects (infiltration),[1],"Pain, mild inflammation,"
same,Frequency of Phlebitis,[1],Frequent
"Cc1c2oc3c(C)ccc(C(=O)N[C@@H]4C(=O)N[C@H](C(C)C)C(=O)N5CCC[C@H]5C(=O)N(C)CC(=O)N(C)[C@@H](C(C)C)C(=O)O[C@@H]4C)c3nc-2c(C(=O)N[C@@H]2C(=O)N[C@H](C(C)C)C(=O)N3CCC[C@H]3C(=O)N(C)CC(=O)N(C)[C@@H](C(C)C)C(=O)O[C@@H]2C)c(N)c1=O [dactinomycin] (I: T[dV]P[Sar][NMeV] / II: T[dV]P[Sar][NMeV]; ester I:1-I:C, II:1-II:C; linker I:N-II:N via Actinocin(9to1))",Frequency of Phlebitis,[1],Frequent
COc1cccc2c1C(=O)c1c(O)c3c(c(O)c1C2=O)C[C@@](O)(C(C)=O)C[C@@H]3O[C@H]1C[C@H](N)[C@H](O)[C@H](C)O1 [daunorubicin],Frequency of Phlebitis,[1],Frequent
CO[C@@]12[C@H](COC(N)=O)C3=C(C(=O)C(C)=C(N)C3=O)N1C[C@@H]1N[C@@H]12 [mitomycin-c],rats died,[5]; male,Five of 12
same,loss of initial body weight,[5],about 25%
CN(N=O)C(=O)N[C@@H](C=O)[C@@H](O)[C@H](O)[C@H](O)CO [streptozocin],Frequency of Phlebitis,[1],Infrequent
hydroxypropyl-β-cyclodextrin [HPCD],effect on body weight,[2],no effect on body weight
same,diameter of the lesion in the one remaining animal,rats [3],0.3 cm
same,rats with no lesion at any sampling time,rats [3],7 of 8
same,lesions caused,rats [4],no lesions
same,lesion size,rats [6],3.5 mm
